Test results taken from patent publication US12065443B2, “Compounds and pharmaceutical compositions thereof for the treatment of diseases” (priority 2017, dated 2024).
Where two headings read alike, the source gives them in different places.

Key:
[1] = molecular target: T1, SIK1 (Homo sapiens, UniProt P57059); test: biochemical; conditions: ADP-Glo SIK kinase assay
T1 construct: purchased Carna Biosciences 02-131
Procedure: (§1) The ADP-Glo™ kinase assay is a luminescent technology assay which measures the ADP formed from a kinase reaction. […] In a second step the kinase reactions are terminated and all the remaining ATP is depleted. In a final step the ADP is converted into ATP and this newly synthesized ATP is measured by using a luciferase/luciferin reaction. The generated light is measured using an Envision plate reader, wherein the luminescent signal obtained positively correlates with the kinase activity.
(§2) 1% DMSO and 10 μM staurosporine final concentrations are used as negative and positive controls.
(§3) 2 μL enzyme-substrate mixture is added to the assay plates.
(§4) The reaction is started by adding 2 μL diluted ATP on the assay plates. Plates are centrifuged for a few seconds at 1000 rpm and gently shaken for 2 min followed by an incubation at RT for 120 min.
(§5) The reactions are stopped and the unconsumed ATP is depleted by adding 5 μL ADP-Glo Reagent (Promega, Cat #V912B) to the reaction. The plates are centrifuged for a few seconds at 1000 rpm and incubated at RT for 40 min (ATP depletion).
(§6) The ADP is converted to ATP and luciferase and luciferin is introduced to detect ATP by adding 10 μL Kinase Detection Reagent (Promega, Cat #V913B+V914B) to the reaction. The plates are centrifuged for a few seconds at 1000 rpm and incubated at RT for 30 min (ADP detection).
(§7) Luminescence is measured on an Envision plate reader (PerkinElmer Inc.).

[2] = molecular target: T2, SIK2 (Homo sapiens, UniProt Q9H0K1); test: biochemical; conditions: ADP-Glo SIK kinase assay
T2 construct: purchased ThermoFisher Scientific PV4792
Procedure: as §1, §2, §3, §4, §5, §6, §7

[3] = molecular target: T3, SIK3 (Homo sapiens, UniProt Q9Y2K2); test: biochemical; conditions: ADP-Glo SIK kinase assay
T3 construct: purchased SignalChem S12-11G-100
Procedure: as §1, §2, §3, §4, §5, §6, §7

[4] = molecular target: T1, SIK1; test: biochemical; conditions: 33P radioactive SIK kinase assay, AMARA peptide, 10 μM ATP; read-out: SIK1 IC50
Method in brief: (§8)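 Read-out: ^33P incorporated into AMARA peptide, counted on filter plates, taken as kinase activity. Reactions start on addition of labeled/unlabeled ATP to enzyme plus substrate and end with phosphoric acid. Controls: 1% DMSO (negative) and 10 μM staurosporine (positive), final.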

[5] = molecular target: T2, SIK2; test: biochemical; conditions: 33P radioactive SIK kinase assay, AMARA peptide, 10 μM ATP
Method in brief: as §8

[6] = molecular target: T3, SIK3; test: biochemical
Method in brief: as §8

[7] = system: LPS-induced TNFα secretion in monocyte-derived macrophages (MdM); test: MdM assay: LPS-triggered TNFα (ELISA); format: cell-based, human; conditions: Homo sapiens, Macrophage, LPS-triggered TNFα inhibition
Method in brief: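 Human CD14+ monocytes isolated from buffy-coat PBMCs by magnetic beads, differentiated to macrophages; on day 10 compound preincubated 1 h at 37 °C, then LPS 200 ng/mL added (0.2% DMSO). Supernatant taken after 20 h; TNFα quantified by sandwich ELISA against standard curve.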

[8] = system: LPS triggered IL-10 secretion in monocyte-derived macrophages (MdM); test: MdM assay: LPS-triggered IL-10 (ELISA); format: cell-based, human; conditions: maximal fold change vs LPS only, median across assays
Procedure: This assay evaluates illustrative compounds of the invention for their inhibition of LPS-induced TNFα and LPS triggered IL-10 secretion in monocyte-derived macrophages.
PBMCs are isolated from human blood samples (buffycoats). The buffy coat is aseptically transferred into a 50 mL Falcon tube, and diluted 1/2 in PBS. Falcon tubes are filled with 20 mL Lymphoprep™, on top of which 25 mL of the buffy coat is carefully added, tubes are centrifuged for 35 min at 400 g in temperature controlled centrifuge, without brake, at 25° C. PBMCs are aspirated from the white interface layer between sample and Lymphoprep™. PBMCs are washed five times in PBS.
PBMCs are centrifuged at 300×g for 10 min and resuspended at a density of 1.0E07 cells/80 μL Miltenyi buffer (PBS, pH 7.4, 1% FBS, 2 mM EDTA).
Starting from this point of the protocol all steps are performed on ice. 20 μL of CD14+ micro-beads are added per 1.0E07 cells, the tube is mixed and incubated for 15 min in the fridge at 4° C. Cell suspension volume is adjusted to total volume of 100 mL using Miltenyi buffer, mixed gently and subsequently centrifuged for 10 min at 300× g. Supernantant is discarded and cell pellet is resuspended in 12 mL of Miltenyi buffer.
Four LS columns are placed in the MACS Separator (magnet) from Miltenyi Biotec, and are prewet by rinsing with 3 mL of MACS buffer per column. Three mL of cell suspension is added onto the column (max 1*10^8 of labelled cells/column), and columns are subsequently washed 3 times with 3 mL of Miltenyi buffer.
The columns are removed from the magnets, and 5 mL of Miltenyi buffer are added to the column to flush out the CD14+ fraction by pushing the plunger into the column. The flushed fractions are collected in a fresh 50 mL Falcon and volume is adjusted to 30 mL using Miltenyi buffer, cells are centrifuged for 10 min at 300× g. The obtained cell pellet is resuspended in 10 mL RPMI w/o FBS, and cell density is determined using a hematologic analyser (Sysmex XS-500i).
On day 10, MdMs are triggered and compound is added.
A compound dilution plate is made in 100% DMSO by 3-fold dilution of 10 mM stock solution. An intermediate dilution plate (10× final concentration) is made by diluting the compound dilution plate 50-fold in RPMI medium.
Medium is carefully removed from cell plates using multichannel pipette, and replaced by 80 μL fresh medium. 10 μL of the 10× final concentration compound is added to the cells and incubated for 1 hour at 37° C. before addition of trigger. No trigger conditions/trigger conditions are spiked with equal final DMSO concentrations of 0.2% DMSO. 10 μL of 10×LPS (final conc. 200 ng/mL) solution are added to all wells except for the ‘no trigger wells’ where 10 μL medium is added. Supernatant is collected after 2 h (IL-10 determination) and after 20 h (TNFα determination) of LPS triggering.
Plates are washed three times with PBST, where after 100 μL of Strep-HRP conjugate (0.5 μg/mL final concentration diluted in dilution buffer) is added. Plates are incubated in the dark, at 37° C. for 30 min. Plates are washed three times with PBST. […] 100 μL of substrate solution is added to each well and incubated until brilliant blue color develops. The reaction is stopped by adding 50 μL of 1 M H2SO4, after which absorbance is measured at 450 nm on the SpectraMax i3, Molecular Devices.
To quantify these inductions fold changes (FC) compared to ‘LPS only’ are calculated for each concentration tested and the maximal FC is calculated (IL-10 FCmax):
[formula] wherein ABS=Absorbance measured at 450 nm.
The median maximal FC for test compounds across two or more assays is reported (IL-10FCmax median).

T2 sequence (Q9H0K1 whole entry): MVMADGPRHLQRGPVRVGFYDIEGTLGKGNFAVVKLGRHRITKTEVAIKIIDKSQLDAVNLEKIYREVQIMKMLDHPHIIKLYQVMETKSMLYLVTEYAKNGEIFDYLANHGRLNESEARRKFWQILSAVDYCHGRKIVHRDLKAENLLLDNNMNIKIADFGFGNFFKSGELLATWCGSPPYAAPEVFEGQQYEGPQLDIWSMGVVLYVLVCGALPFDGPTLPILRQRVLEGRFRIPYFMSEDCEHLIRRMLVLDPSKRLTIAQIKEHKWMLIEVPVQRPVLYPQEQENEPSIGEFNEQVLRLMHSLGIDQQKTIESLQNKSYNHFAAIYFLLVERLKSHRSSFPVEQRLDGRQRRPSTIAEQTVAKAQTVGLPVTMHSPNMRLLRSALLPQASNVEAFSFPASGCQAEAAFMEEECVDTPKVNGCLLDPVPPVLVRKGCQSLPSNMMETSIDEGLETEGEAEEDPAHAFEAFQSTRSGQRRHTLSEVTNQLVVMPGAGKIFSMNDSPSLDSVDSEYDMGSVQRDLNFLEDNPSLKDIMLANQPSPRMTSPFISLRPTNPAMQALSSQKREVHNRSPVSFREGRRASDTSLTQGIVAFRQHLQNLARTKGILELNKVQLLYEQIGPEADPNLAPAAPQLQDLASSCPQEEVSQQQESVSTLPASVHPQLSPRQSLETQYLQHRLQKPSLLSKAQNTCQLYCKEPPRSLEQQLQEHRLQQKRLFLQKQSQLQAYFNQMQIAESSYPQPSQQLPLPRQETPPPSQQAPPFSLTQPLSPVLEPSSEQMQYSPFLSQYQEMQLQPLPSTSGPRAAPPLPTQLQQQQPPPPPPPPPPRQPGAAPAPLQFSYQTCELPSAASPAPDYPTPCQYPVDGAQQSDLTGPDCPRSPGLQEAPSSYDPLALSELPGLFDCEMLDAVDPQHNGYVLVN
T1 sequence (P57059 whole entry): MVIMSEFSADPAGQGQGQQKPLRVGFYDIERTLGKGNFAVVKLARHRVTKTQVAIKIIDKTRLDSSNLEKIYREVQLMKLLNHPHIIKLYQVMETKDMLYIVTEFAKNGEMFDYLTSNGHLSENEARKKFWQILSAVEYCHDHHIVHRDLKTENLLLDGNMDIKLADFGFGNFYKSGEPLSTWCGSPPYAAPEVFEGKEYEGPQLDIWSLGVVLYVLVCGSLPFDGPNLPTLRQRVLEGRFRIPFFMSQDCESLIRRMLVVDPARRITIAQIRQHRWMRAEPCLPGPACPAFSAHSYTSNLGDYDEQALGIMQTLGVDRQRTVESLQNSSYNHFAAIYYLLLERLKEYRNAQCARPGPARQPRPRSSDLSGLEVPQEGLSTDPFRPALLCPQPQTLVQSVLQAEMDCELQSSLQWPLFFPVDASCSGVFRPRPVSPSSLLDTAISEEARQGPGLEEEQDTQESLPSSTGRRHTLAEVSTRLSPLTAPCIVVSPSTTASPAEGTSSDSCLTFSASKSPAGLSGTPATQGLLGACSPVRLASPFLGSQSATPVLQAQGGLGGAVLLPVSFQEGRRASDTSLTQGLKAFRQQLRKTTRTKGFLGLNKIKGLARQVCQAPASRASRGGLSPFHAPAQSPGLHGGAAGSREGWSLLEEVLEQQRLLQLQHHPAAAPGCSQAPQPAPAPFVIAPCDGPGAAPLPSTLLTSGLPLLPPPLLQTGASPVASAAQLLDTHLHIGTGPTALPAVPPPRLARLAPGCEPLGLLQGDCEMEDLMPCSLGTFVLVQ
T3 sequence (Q9Y2K2 whole entry): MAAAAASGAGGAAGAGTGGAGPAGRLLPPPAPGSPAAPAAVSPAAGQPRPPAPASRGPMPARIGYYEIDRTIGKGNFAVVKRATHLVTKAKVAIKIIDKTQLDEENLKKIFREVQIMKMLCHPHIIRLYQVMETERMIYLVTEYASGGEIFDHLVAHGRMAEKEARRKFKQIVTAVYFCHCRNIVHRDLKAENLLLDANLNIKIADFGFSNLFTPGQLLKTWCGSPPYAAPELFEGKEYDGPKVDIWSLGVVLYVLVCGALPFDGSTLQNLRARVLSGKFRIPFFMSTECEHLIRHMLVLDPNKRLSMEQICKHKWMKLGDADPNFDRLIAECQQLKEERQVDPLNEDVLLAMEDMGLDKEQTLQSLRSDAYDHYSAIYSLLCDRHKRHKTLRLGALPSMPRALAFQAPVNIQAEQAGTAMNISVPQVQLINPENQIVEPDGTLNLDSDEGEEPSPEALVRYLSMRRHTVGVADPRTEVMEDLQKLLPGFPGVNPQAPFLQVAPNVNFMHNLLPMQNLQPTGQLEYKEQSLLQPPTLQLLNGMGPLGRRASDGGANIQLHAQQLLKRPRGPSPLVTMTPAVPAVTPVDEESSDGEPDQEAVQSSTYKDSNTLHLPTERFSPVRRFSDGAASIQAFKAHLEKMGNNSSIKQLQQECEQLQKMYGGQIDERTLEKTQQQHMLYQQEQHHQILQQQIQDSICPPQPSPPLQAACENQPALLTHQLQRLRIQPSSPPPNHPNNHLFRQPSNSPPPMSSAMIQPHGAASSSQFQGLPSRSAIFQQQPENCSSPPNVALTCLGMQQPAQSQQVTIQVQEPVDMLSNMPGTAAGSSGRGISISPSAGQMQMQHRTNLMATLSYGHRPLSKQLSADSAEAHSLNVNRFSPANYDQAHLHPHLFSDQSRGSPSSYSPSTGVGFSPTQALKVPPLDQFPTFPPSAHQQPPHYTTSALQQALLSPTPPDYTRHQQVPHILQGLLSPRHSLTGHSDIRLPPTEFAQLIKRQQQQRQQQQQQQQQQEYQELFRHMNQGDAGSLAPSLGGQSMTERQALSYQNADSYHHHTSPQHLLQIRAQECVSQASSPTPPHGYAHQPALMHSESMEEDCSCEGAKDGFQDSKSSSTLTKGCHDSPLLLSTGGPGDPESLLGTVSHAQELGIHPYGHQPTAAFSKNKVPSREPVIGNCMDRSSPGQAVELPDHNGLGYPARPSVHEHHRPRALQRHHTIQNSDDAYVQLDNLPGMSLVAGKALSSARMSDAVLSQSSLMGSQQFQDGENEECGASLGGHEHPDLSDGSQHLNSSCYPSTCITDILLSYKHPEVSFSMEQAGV

Row | Structure (SMILES) | IC50 [1] [nM] | IC50 [2] [nM] | IC50 [3] [nM] | IC50 [4] [nM] | IC50 [5] [nM] | IC50 [6] [nM] | EC50 [7] [nM] | IL-10 FCmax median [8]
1 | COc1cc(-c2cnc3cc(-c4ccc(C(F)(F)F)nn4)ccn23)cc(OC(F)F)c1C(=O)NC1CC1 [compound 281, N-cyclopropyl-2-(difluoromethoxy)-6-methoxy-4-[7-[6-(trifluoromethyl)pyridazin-3-yl]imidazo[1,2-a]pyridin-3-yl]benzamide] | 10 to 100 | 0.01 to 10 | 0.01 to 10 |  |  |  |  | 
2 | COc1cc(-c2cnc3cc(-c4ccc(C)nn4)ccn23)cc(OC)c1C(=O)NCC(F)(F)F [compound 269, 2,6-dimethoxy-4-[7-(6-methylpyridazin-3-yl)imidazo[1,2-a]pyridin-3-yl]-N-(2,2,2-trifluoroethyl)benzamide] | 10 to 100 | 0.01 to 10 | 0.01 to 10 |  |  |  |  | 
3 | COc1cc(-c2cnc3cc(-c4ccc(C#N)nn4)ccn23)cc(OC(F)F)c1C(=O)NC1CC1 [compound 282, 4-[7-(6-cyanopyridazin-3-yl)imidazo[1,2-a]pyridin-3-yl]-N-cyclopropyl-2-(difluoromethoxy)-6-methoxy-benzamide] | 0.01 to 10 | 0.01 to 10 | 0.01 to 10 |  |  |  |  | 
4 | CCOC(=O)Cn1cc(-c2ccn3c(-c4cc(OC)c(C(=O)NC5CC5)c(OC(F)F)c4)cnc3c2)cn1 [Cpd 284, ethyl 2-[4-[3-[4-(cyclopropyl-carbamoyl)-3-(difluoromethoxy)-5-methoxy-phenyl]imidazo[1,2-a]pyridin-7-yl]pyrazol-1-yl]acetate] | 0.01 to 10 | 0.01 to 10 | 0.01 to 10 |  |  |  |  | 
5 | Cn1cc(-c2ccn3c(-c4cc(F)c(C(=O)NCC(F)(F)F)c(F)c4)cnc3c2)cn1 [compound 271, 2,6-difluoro-4-[7-(1-methylpyrazol-4-yl)imidazo[1,2-a]pyridin-3-yl]-N-(2,2,2-trifluoroethyl)benzamide] | 100 to 500 | 0.01 to 10 | 10 to 100 |  |  |  |  | 
6 | COc1cc(-c2cnc3cc(-c4cnn(C(C)(C)C(=O)O)c4)ccn23)cc(OC)c1C(=O)NCC(F)(F)F [Cpd 304, 2-[4-[3-[3,5-dimethoxy-4-(2,2,2-trifluoroethyl-carbamoyl)phenyl]imidazo[1,2-a]pyridin-7-yl]pyrazol-1-yl]-2-methyl-propanoic acid] | 0.01 to 10 | 10 to 100 | 0.01 to 10 |  |  |  |  | 
7 | COc1cc(-n2cnc3cc(-c4cnn(C)c4)ccc32)cc(OC)c1C(=O)N[C@@H]1C[C@@H]1C(F)F [compound 158] |  |  |  | 10 to 100 | 0.01 to 10 | 0.01 to 10 | 100 to 1000 | ++ (>1.5-4.5)
8 | COc1cc(-c2cnc3cc(-c4cnn(C)c4)ccn23)cc(Cl)c1C(=O)NCC(F)(F)F [compound 207, 2-chloro-6-methoxy-4-[7-(1-methylpyrazol-4-yl)imidazo[1,2-a]pyridin-3-yl]-N-(2,2,2-trifluoroethyl)benzamide] |  |  |  | 10 to 100 | 0.01 to 10 | 0.01 to 10 | 100 to 1000 | ++ (>1.5-4.5)
9 | CCNC(=O)c1c(OC)cc(-n2cnc3cc(-c4ccc(N5CCOCC5)nc4)ccc32)cc1OC [compound 3, N-ethyl-2,6-dimethoxy-4-[5-(6-morpholino-3-pyridyl)benzimidazol-1-yl]benzamide] |  |  |  | 10 to 100 | 10 to 100 | 10 to 100 | 100 to 1000 | ++ (>1.5-4.5)
10 | COc1cc(-c2cnc3cc(-c4cnn(C)c4)ccn23)cc(C)c1C(=O)NCC(F)(F)F [Cpd 206, 2-methoxy-6-methyl-4-[7-(1-methylpyrazol-4-yl)imidazo[1,2-a]pyridin-3-yl]-N-(2,2,2-trifluoroethyl)benzamide] |  |  |  | 10 to 100 | 10 to 100 | 10 to 100 | 100 to 1000 | +++ (>4.5)
11 | CCn1cc(-c2ccc3c(c2)ncn3-c2cc(OC)c(C(=O)NC3CC3)c(OC(F)F)c2)cn1 [compound 54, N-cyclopropyl-2-(difluoromethoxy)-4-[5-(1-ethylpyrazol-4-yl)benzimidazol-1-yl]-6-methoxy-benzamide] |  |  |  | 10 to 100 | 0.01 to 10 | 0.01 to 10 | 0.1 to 100 | ++ (>1.5-4.5)
12 | COc1cc(-n2cnc3cc(-c4cnn(C)c4)ccc32)cc(OC)c1C(=O)N1CC(O)(C(F)(F)F)C1 [compound 219, [2,6-dimethoxy-4-[5-(1-methylpyrazol-4-yl)benzimidazol-1-yl]phenyl]-[3-hydroxy-3-(trifluoromethyl)azetidin-1-yl]methanone] |  |  |  | 0.01 to 10 | 0.01 to 10 | 0.01 to 10 | 100 to 1000 | ++ (>1.5-4.5)
13 | CCn1cc(-c2ccc3c(c2)ncn3-c2cc(OC)c(C(=O)NC3C[C@H]3C)c(OC)c2)cn1 (stereo partly drawn) [compound 49, 4-[5-(1-ethylpyrazol-4-yl)benzimidazol-1-yl]-2,6-dimethoxy-N-[(2R)-2-methylcyclopropyl]benzamide] |  |  |  | 10 to 100 | 10 to 100 | 10 to 100 | > 5000 | ++ (>1.5-4.5)
14 | CCn1cc(-c2cnc3c(c2)ncn3-c2cc(OC)c(C(=O)NCC(F)(F)F)c(OC)c2)cn1 [Cpd 29, 4-[6-(1-ethylpyrazol-4-yl)imidazo[4,5-b]pyridin-3-yl]-2,6-dimethoxy-N-(2,2,2-trifluoroethyl)benzamide] |  |  |  | 10 to 100 | 10 to 100 | 10 to 100 | 100 to 1000 | ++ (>1.5-4.5)
